Experimental data published in patent US9458515B2, “RNA including nucleoside compound, method for regulating amount of protein produced from the RNA, and nucleoside compound” (RIKEN, priority 2010, dated 2016).

How the values were obtained:
[1] = Alternate cis-trans photoisomerization, durability against reversible photoisomerization (absorbance 420 nm); format: physicochemical; conditions: 25 μM in methanol, alternate 420 nm / 550 nm, each 20 seconds, 30 cycles
Description: A stock solution was prepared by dissolving the trans-8-phenylazoguanosine obtained in (3-1) in methanol so that the trans-8-phenylazoguanosine presented at a concentration of 25 μM in the stock solution. In a quartz cell measuring 1 cm per side was placed 200 μl out of the stock solution. The quartz cell was alternately irradiated with visible light having wavelength of 420 nm and with visible light having a wavelength of 550 nm, each for 20 seconds, in a dark place. While this process was repeated in 30 cycles, an absorbance (420 nm) was measured. From the result of the measurement, durability of the compound against reversible photoisomerization was assessed. MAX-301 manufactured by Asahi Spectra Co., Ltd. was used as a light source, and M.C.420/10 nm and M.C.550/10 nm manufactured by the same manufacturer were used as filters.

[2] = Photoisomerization reaction assessed by time-dependent changes of absorption spectra; format: physicochemical; conditions: 25 μM in methanol, dark place; for photoisomerization from trans form to cis form: visible light of 420 nm; for photoisomerization from cis form to trans form: visible light of 550 nm
Description: A stock solution was prepared by dissolving the 8-phenylazoguanosine obtained in (3-1) in methanol so that the 8-phenylazoguanosine presented at a concentration of 25 μM in the stock solution. In a quartz cell measuring 1 cm per side was placed 200 μl out of the stock solution thus prepared. The quartz cell was irradiated with visible light having a wavelength of 420 nm in a dark place, so that photoisomerization of the trans-8-phenylazoguanosine was assessed by measuring time-dependent changes of absorption spectra of the 8-phenylazoguanosine. In this assessment, MAX-301 manufactured by Asahi Spectra Co., Ltd. was used as a light source, and M.C.420/10 nm manufactured by the same manufacturer was used as a filter. As shown in FIG. 4 (in the upper part), along with trans to cis photoisomerization of the trans-8-phenylazoguanosine, a peak of an absorbance at 420 nm decreased, and an absorbance at 500 to 600 nm increased.
Out of the stock solution prepared in (3-2-1), 200 μl of stock solution was isomerized to the cis form as described previously, after which the resulting product was placed in a quartz cell measuring 1 cm per side. The quartz cell was irradiated with visible light having a wavelength of 550 nm in a dark place, so that photoisomerization of cis-8-phenylazoguanosine was assessed by measuring time-dependent changes of absorption spectrum of the 8-phenylazoguanosine. […] As shown in FIG. 4 (in the lower part), along with trans photoisomerization of the cis-8-phenylazoguanosine, a peak of an absorbance at 420 nm increased, and an absorbance at 500 to 600 nm decreased.
A stock solution was prepared by dissolving the trans-8-(p-toluoylazo)guanosine obtained in (4-1) in methanol so that the trans-8-(p-toluoylazo) guanosine presented at a concentration of 25 μM in the stock solution. […] The quartz cell was irradiated with visible light having a wavelength of 420 nm in a dark place, so that photoisomerization of the trans-8-(p-toluoylazo)guanosine was assessed by measuring time-dependent change of absorption spectra of the trans-8-(p-toluoylazo)guanosine. […] As shown in FIG. 6 (in the upper part), along with cis photoisomerization of the trans-8-(p-toluoylazo)guanosine, a peak of an absorbance at 420 nm decreased, and an absorbance at 500 to 600 nm increased.
Out of the stock solution prepared in (4-2-1), 200 μl of stock solution was isomerized to the cis form as described previously, after which the resulting product was placed in a quartz cell measuring 1 cm per side. The quartz cell was irradiated with visible light having a wavelength of 550 nm in a dark place, so that photoisomerization of cis-8-(p-toluoylazo) guanosine was assessed by measuring time-dependent changes of absorption spectrum of the cis-8-(p-toluoylazo)guanosine. […]

Compound	photoisomerization from trans form to cis form [2]	photoisomerization from cis form to trans form [2]	further results
trans-8-phenylazoguanosine			durability against reversible photoisomerization (decomposition, side-reaction) [1]: no decomposition and side-reaction; trans to cis and cis to trans photoisomerizations on alternate irradiation [1]: alternately took place
Nc1nc2c(nc(/N=N/c3ccccc3)n2[C@@H]2O[C@H](CO)[C@H](O)C2O)c(=O)[nH]1 (stereo partly drawn) [trans-8-phenylazoguanosine]	photoisomerized nearly completely to the cis form		
Cc1ccc(/N=N/c2nc3c(=O)[nH]c(N)nc3n2[C@@H]2O[C@H](CO)[C@H](O)C2O)cc1 (stereo partly drawn)	photoisomerized nearly completely to the cis form		
Cc1ccc(/N=N\c2nc3c(=O)[nH]c(N)nc3n2[C@@H]2O[C@H](CO)[C@H](O)C2O)cc1 (stereo partly drawn)		photoisomerized nearly completely to the trans form	
Nc1nc2c(nc(/N=N\c3ccccc3)n2[C@@H]2O[C@H](CO)[C@H](O)C2O)c(=O)[nH]1 (stereo partly drawn) [cis-8-phenylazoguanosine]		photoisomerized nearly completely to the trans form	
